Test results: patent US9981959B2, “Thiazolyl and oxazolyl urea, thiourea, guanidine and cyanoguanidine compounds as TrkA kinase inhibitors” (Array BioPharma Inc., priority 2012, dated 2018)

Experiments:
Experiment in all cases: KinaseProfiler off-target kinase profiling
Type in all cases: biochemical
Details in all cases: 10 μM, ATP near Km
AKT3 = molecular target: T1, AKT3 (Homo sapiens, UniProt Q9Y243)
T1 construct: purchased Millipore (KinaseProfiler service)
Description: (§1) A representative compound of the invention (Example 2) was tested for off-target kinase activity at a concentration of 10 μM by Millipore, Inc. in their KinaseProfiler™ service against all the kinases available in their full kinase panel. The compound was run in duplicate at a concentration of ATP near the Km for each individual kinase according to Millipore's specifications. The results are shown in Table B. Data are reported as percent of control (POC) and are the average of the two replicates.

ALK = molecular target: T2, ALK (Homo sapiens, UniProt Q9UM73)
T2 construct: purchased Millipore (KinaseProfiler service)
Description: as §1

ARK5 = molecular target: T3, ARK5 (Homo sapiens, UniProt O60285)
T3 construct: purchased Millipore (KinaseProfiler service)
Description: as §1

Abl2 = molecular target: T4, Abl2 (Homo sapiens, UniProt P42684)
T4 construct: purchased Millipore (KinaseProfiler service)
Description: as §1

Axl = molecular target: T5, Axl (Homo sapiens, UniProt P30530)
T5 construct: purchased Millipore (KinaseProfiler service)
T5 sequence (P30530 26-894): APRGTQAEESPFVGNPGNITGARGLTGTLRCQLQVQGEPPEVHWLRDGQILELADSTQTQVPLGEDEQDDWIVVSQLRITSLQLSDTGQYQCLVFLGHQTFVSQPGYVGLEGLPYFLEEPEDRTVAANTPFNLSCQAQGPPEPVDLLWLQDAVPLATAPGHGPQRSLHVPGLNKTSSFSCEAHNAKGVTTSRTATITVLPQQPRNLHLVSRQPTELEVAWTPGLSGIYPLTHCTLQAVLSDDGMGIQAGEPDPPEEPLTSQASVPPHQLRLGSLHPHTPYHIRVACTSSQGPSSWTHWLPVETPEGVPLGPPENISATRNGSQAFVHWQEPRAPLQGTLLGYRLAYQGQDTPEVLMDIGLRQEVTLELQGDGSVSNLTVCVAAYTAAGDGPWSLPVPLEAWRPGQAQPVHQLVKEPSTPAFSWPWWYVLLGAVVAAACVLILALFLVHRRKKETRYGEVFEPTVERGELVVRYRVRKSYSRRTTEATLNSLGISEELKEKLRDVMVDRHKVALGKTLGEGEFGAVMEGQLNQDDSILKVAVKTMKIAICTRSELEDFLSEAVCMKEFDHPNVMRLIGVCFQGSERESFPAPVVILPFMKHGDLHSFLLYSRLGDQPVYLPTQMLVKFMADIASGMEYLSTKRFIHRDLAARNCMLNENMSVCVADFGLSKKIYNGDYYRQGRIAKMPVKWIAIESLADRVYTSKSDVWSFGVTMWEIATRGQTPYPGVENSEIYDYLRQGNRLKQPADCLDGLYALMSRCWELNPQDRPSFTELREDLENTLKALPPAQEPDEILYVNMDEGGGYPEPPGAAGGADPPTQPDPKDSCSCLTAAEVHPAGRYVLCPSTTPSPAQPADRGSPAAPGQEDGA
Description: as §1

Bmx = molecular target: T6, Bmx (Homo sapiens, UniProt P51813)
T6 construct: purchased Millipore (KinaseProfiler service)
Description: as §1

CAMK2g = molecular target: T7, CAMK2g (Homo sapiens, UniProt Q13555)
T7 construct: purchased Millipore (KinaseProfiler service)
T7 sequence (Q13555 whole entry): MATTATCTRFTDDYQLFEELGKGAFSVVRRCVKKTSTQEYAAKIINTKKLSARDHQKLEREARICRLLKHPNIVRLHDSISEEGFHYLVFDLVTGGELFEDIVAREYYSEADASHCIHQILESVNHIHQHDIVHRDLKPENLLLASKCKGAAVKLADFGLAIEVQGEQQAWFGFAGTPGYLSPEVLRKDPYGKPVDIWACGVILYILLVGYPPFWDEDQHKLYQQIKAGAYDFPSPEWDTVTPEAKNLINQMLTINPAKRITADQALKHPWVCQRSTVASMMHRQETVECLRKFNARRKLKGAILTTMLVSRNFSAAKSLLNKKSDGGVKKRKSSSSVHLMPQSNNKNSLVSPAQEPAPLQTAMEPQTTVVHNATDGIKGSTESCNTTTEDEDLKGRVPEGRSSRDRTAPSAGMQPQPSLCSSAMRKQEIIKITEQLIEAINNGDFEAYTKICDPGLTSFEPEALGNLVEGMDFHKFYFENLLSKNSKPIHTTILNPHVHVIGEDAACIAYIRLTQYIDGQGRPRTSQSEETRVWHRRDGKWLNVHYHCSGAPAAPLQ
Description: as §1

CDK3/cyclinE = molecular target: T8, CDK3/cyclinE (Homo sapiens, UniProt Q00526)
T8 construct: purchased Millipore, Inc. (KinaseProfiler service)
Description: as §1

CDK6/cyclinD3 = molecular target: T9, CDK6/cyclinD3 (Homo sapiens, UniProt Q00534)
T9 construct: purchased Millipore, Inc. (KinaseProfiler service)
Description: as §1

CK1_y = tested on: CK1_y
Description: as §1

CK1delta = molecular target: T10, CK1delta (Homo sapiens, UniProt P48730)
T10 construct: purchased Millipore, Inc. (KinaseProfiler service)
Description: as §1

CLK2 = molecular target: T11, CLK2 (Homo sapiens, UniProt P49760)
T11 construct: purchased Millipore, Inc. (KinaseProfiler service)
T11 sequence (P49760 whole entry): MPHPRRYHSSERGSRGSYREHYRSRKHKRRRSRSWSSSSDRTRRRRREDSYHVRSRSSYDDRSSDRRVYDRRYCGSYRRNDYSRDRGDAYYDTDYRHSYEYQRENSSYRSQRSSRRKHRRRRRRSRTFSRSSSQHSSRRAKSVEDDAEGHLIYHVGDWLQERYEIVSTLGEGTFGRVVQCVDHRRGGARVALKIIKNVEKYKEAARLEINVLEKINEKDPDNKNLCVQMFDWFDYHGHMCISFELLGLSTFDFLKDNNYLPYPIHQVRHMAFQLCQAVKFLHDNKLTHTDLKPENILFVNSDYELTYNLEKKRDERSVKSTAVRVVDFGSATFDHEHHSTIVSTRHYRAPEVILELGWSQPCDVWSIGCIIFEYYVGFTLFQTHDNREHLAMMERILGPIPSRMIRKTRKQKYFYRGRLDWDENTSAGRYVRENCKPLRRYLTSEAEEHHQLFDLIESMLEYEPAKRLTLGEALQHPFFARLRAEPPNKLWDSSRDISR
Description: as §1

DRAK1 = molecular target: T12, DRAK1 (Homo sapiens, UniProt Q9UEE5)
T12 construct: purchased Millipore, Inc. (KinaseProfiler service)
T12 sequence (Q9UEE5 whole entry): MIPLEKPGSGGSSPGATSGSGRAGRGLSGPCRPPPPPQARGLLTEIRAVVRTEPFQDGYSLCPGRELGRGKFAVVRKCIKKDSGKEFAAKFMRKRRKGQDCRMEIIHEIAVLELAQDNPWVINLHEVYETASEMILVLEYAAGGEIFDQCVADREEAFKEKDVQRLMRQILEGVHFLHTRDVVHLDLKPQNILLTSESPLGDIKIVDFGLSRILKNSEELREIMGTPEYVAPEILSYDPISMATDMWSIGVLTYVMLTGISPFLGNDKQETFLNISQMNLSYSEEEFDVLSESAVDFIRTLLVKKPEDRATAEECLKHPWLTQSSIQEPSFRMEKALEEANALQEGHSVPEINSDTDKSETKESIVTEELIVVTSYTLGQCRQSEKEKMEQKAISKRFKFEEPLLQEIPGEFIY
Description: as §1

EphA3 = molecular target: T13, EphA3 (Homo sapiens, UniProt P29320)
T13 construct: purchased Millipore, Inc. (KinaseProfiler service)
Description: as §1

EphB1 = molecular target: T14, EphB1 (Homo sapiens, UniProt P54762)
T14 construct: purchased Millipore, Inc. (KinaseProfiler service)
Description: as §1

GSK3alpha = molecular target: T15, GSK3alpha (Homo sapiens, UniProt P49840)
T15 construct: purchased Millipore, Inc. (KinaseProfiler service)
Description: as §1

HIPK2 = molecular target: T16, HIPK2 (Homo sapiens, UniProt Q9H2X6)
T16 construct: purchased Millipore, Inc. (KinaseProfiler service)
Description: as §1

JAK3 = molecular target: T17, JAK3 (Homo sapiens, UniProt P52333)
T17 construct: purchased Millipore, Inc. (KinaseProfiler service)
Description: as §1

MINK = molecular target: T18, MINK (Homo sapiens, UniProt Q8N4C8)
T18 construct: purchased Millipore, Inc. (KinaseProfiler service)
Description: as §1

MKNK2 = molecular target: T19, MKNK2 (Homo sapiens, UniProt Q9HBH9)
T19 construct: purchased Millipore, Inc. (KinaseProfiler service)
Description: as §1

MLK1 = molecular target: T20, MLK1 (Homo sapiens, UniProt P80192)
T20 construct: purchased Millipore, Inc. (KinaseProfiler service)
T20 sequence (P80192 whole entry): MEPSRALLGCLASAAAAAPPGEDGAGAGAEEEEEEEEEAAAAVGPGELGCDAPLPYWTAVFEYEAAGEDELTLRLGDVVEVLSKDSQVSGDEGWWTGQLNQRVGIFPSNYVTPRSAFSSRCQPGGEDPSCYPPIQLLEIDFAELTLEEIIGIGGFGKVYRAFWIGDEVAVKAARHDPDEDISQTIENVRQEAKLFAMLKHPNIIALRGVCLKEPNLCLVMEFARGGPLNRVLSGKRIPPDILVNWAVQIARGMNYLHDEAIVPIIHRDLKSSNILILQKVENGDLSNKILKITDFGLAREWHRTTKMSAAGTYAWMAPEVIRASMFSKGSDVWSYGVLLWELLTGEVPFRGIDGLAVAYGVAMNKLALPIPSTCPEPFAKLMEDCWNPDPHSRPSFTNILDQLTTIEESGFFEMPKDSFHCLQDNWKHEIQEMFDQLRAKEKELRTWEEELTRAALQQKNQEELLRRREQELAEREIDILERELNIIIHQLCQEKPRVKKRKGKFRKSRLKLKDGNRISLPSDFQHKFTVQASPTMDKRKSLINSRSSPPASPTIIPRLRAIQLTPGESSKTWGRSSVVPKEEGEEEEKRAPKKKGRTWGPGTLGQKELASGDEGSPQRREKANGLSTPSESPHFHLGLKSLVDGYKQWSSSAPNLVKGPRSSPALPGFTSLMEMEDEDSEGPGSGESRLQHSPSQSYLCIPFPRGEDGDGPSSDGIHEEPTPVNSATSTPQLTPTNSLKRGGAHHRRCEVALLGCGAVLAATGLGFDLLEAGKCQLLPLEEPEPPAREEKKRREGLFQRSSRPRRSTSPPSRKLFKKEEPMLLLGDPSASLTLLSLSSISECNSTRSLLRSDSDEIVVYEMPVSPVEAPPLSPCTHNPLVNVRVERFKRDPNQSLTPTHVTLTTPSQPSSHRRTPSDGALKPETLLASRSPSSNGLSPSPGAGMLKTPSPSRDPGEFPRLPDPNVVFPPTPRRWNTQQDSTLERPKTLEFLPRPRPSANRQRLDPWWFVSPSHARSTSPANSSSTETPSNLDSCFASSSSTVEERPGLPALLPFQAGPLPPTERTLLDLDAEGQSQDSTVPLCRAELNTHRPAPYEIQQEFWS
Description: as §1

MRCKbeta = molecular target: T21, MRCKbeta (Homo sapiens, UniProt Q9Y5S2)
T21 construct: purchased Millipore, Inc. (KinaseProfiler service)
Description: as §1

MST2 = molecular target: T22, MST2 (Homo sapiens, UniProt Q13188)
T22 construct: purchased Millipore, Inc. (KinaseProfiler service)
Description: as §1

MST3 = molecular target: T23, MST3 (Homo sapiens, UniProt Q9Y6E0)
T23 construct: purchased Millipore, Inc. (KinaseProfiler service)
Description: as §1

NEK11 = molecular target: T24, NEK11 (Homo sapiens, UniProt Q8NG66)
T24 construct: purchased Millipore, Inc. (KinaseProfiler service)
Description: as §1

PAK4 = molecular target: T25, PAK4 (Homo sapiens, UniProt O96013)
T25 construct: purchased Millipore, Inc. (KinaseProfiler service)
T25 sequence (O96013 whole entry): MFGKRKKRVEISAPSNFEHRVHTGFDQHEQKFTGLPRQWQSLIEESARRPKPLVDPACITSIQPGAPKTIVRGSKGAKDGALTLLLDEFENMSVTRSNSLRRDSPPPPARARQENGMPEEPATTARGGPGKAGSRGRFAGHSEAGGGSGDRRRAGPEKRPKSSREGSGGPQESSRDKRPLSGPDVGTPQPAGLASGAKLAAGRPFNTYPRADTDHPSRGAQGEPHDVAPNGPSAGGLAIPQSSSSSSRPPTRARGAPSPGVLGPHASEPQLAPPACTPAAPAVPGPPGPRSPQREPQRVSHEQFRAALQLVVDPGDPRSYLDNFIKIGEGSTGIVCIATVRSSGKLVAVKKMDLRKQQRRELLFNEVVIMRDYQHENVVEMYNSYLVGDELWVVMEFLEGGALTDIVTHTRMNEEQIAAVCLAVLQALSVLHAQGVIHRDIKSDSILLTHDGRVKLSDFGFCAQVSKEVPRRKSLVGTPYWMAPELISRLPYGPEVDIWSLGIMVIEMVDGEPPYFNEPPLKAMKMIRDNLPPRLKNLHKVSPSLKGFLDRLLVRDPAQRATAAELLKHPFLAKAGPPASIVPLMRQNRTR
Description: as §1

PAK5 = molecular target: T26, PAK5 (Homo sapiens, UniProt Q9P286)
T26 construct: purchased Millipore, Inc. (KinaseProfiler service)
Description: as §1

PKAC-alpha = molecular target: T27, PKAC-alpha (Homo sapiens, UniProt P17612)
T27 construct: purchased Millipore, Inc. (KinaseProfiler service)
Description: as §1

PKCalpha = molecular target: T28, PKCalpha (Homo sapiens, UniProt P17252)
T28 construct: purchased Millipore, Inc. (KinaseProfiler service)
Description: as §1

PKCeta = molecular target: T29, PKCeta (Homo sapiens, UniProt P24723)
T29 construct: purchased Millipore, Inc. (KinaseProfiler service)
Description: as §1

PRKG1beta = molecular target: T30, PRKG1beta (Homo sapiens, UniProt Q13976)
T30 construct: purchased Millipore, Inc. (KinaseProfiler service)
Description: as §1

Plk3 = molecular target: T31, Plk3 (Homo sapiens, UniProt Q9H4B4)
T31 construct: purchased Millipore, Inc. (KinaseProfiler service)
Description: as §1

PrKX = molecular target: T32, PrKX (Homo sapiens, UniProt P51817)
T32 construct: purchased Millipore, Inc. (KinaseProfiler service)
T32 sequence (P51817 whole entry): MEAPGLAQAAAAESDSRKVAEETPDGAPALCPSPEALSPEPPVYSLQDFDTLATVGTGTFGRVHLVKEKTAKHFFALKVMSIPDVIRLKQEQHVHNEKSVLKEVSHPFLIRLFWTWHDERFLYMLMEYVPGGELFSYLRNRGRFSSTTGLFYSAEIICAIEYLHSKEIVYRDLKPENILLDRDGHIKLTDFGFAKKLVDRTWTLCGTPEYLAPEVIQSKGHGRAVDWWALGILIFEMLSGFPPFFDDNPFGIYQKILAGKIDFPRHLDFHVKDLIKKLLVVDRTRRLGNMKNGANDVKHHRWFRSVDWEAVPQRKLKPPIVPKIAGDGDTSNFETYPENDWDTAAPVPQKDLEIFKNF
Description: as §1

ROCK-II = molecular target: T33, ROCK-II (Homo sapiens, UniProt O75116)
T33 construct: purchased Millipore, Inc. (KinaseProfiler service)
Description: as §1

SGK1 = molecular target: T34, SGK1 (Homo sapiens, UniProt O00141, S422D)
T34 construct: purchased Millipore, Inc. (KinaseProfiler service)
Description: as §1

SRPK1 = molecular target: T35, SRPK1 (Homo sapiens, UniProt Q96SB4)
T35 construct: purchased Millipore, Inc. (KinaseProfiler service)
T35 sequence (Q96SB4 whole entry): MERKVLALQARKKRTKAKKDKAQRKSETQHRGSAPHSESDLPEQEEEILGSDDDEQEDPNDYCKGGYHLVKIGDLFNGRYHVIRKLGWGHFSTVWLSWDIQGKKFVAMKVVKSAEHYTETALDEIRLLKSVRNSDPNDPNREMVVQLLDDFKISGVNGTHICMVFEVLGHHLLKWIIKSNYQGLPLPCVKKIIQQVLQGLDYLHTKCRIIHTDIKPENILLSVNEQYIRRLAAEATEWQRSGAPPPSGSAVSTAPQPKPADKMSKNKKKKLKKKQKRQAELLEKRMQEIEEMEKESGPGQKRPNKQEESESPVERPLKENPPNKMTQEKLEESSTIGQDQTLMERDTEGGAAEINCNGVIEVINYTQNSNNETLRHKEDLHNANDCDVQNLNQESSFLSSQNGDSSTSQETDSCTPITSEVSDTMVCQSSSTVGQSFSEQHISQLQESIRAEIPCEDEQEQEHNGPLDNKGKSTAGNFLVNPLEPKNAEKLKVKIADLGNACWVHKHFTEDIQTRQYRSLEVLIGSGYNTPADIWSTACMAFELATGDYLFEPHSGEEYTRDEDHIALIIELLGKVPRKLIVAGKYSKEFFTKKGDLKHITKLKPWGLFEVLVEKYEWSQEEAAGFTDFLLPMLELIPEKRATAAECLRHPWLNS
Description: as §1

TBK1 = molecular target: T36, TBK1 (Homo sapiens, UniProt Q9UHD2)
T36 construct: purchased Millipore, Inc. (KinaseProfiler service)
Description: as §1

TEC Activated = molecular target: T37, TEC Activated (Homo sapiens, UniProt P42680)
T37 construct: purchased Millipore, Inc. (KinaseProfiler service)
Description: as §1

TLK2 = molecular target: T38, TLK2 (Homo sapiens, UniProt Q86UE8)
T38 construct: purchased Millipore, Inc. (KinaseProfiler service)
Description: as §1

mTOR = molecular target: T39, mTOR (Homo sapiens, UniProt P42345)
T39 construct: purchased Millipore, Inc. (KinaseProfiler service)
Description: as §1

p70S6K = molecular target: T40, p70S6K (Homo sapiens, UniProt P23443)
T40 construct: purchased Millipore, Inc. (KinaseProfiler service)
Description: as §1

Cc1c(-c2cnn(C)c2)nn(-c2ccccc2)c1NC(=O)Nc1sc(C(F)(F)F)nc1-c1ccccc1 [Example 2, 1-(1′,4-dimethyl-1-phenyl-1H,1′H-[3,4′-bipyrazol]-5-yl)-3-(4-phenyl-2-(trifluoromethyl)thiazol-5-yl)urea]
Avg POC (AKT3): 116 POC | Avg POC (ALK): 108 POC | Avg POC (ARK5): 102 POC | Avg POC (Abl2): 136 POC | Avg POC (Axl): 122.5 POC | Avg POC (Bmx): 129.5 POC | Avg POC (CAMK2g): 103 POC | Avg POC (CDK3/cyclinE): 105 POC | Avg POC (CDK6/cyclinD3): 119.5 POC | Avg POC (CK1_y): 103 POC | Avg POC (CK1delta): 117.5 POC | Avg POC (CLK2): 118 POC | Avg POC (DRAK1): 119 POC | Avg POC (EphA3): 120 POC | Avg POC (EphB1): 136 POC | Avg POC (GSK3alpha): 147.5 POC | Avg POC (HIPK2): 98.5 POC | Avg POC (JAK3): 113 POC | Avg POC (MINK): 117.5 POC | Avg POC (MKNK2): 95 POC | Avg POC (MLK1): 95.5 POC | Avg POC (MRCKbeta): 113 POC | Avg POC (MST2): 109 POC | Avg POC (MST3): 157.5 POC | Avg POC (NEK11): 73.5 POC | Avg POC (PAK4): 103.5 POC | Avg POC (PAK5): 131.5 POC | Avg POC (PKAC-alpha): 134 POC | Avg POC (PKCalpha): 102.5 POC | Avg POC (PKCeta): 103.5 POC | Avg POC (PRKG1beta): 119 POC | Avg POC (Plk3): 105 POC | Avg POC (PrKX): 122 POC | Avg POC (ROCK-II): 115.5 POC | Avg POC (SGK1): 139.5 POC | Avg POC (SRPK1): 114 POC | Avg POC (TBK1): 100.5 POC | Avg POC (TEC Activated): 131 POC | Avg POC (TLK2): 98 POC | Avg POC (mTOR): 92.5 POC | Avg POC (p70S6K): 322 POC
